Reference: ChEMBL document CHEMBL5291721, “A preclinical secondary pharmacology resource illuminates target-adverse drug reaction associations of marketed drugs” (Nat Commun, 2023)

Columns and labels:
[1] = target: Sodium-dependent noradrenaline transporter (Homo sapiens, UniProt P23975)
[2] = target: T1, 5-hydroxytryptamine receptor 3A (Homo sapiens, UniProt P46098); assay type: functional
T1 sequence (P46098 whole entry): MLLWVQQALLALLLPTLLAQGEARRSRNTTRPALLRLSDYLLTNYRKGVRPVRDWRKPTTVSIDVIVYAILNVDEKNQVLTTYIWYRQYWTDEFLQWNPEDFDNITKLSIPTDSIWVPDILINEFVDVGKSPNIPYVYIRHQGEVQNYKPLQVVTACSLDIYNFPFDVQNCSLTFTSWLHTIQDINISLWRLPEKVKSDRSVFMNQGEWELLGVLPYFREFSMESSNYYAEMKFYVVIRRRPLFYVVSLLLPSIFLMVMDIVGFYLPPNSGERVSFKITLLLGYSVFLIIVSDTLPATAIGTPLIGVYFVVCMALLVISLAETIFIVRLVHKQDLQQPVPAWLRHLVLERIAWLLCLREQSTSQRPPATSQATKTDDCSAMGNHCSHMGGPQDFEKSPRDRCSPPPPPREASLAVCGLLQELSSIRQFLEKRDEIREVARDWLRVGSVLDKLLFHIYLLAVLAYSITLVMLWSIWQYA

[3] = target: 5-hydroxytryptamine receptor 2B (Homo sapiens, UniProt P41595); assay type: functional, cell-based
Sequence of 5-hydroxytryptamine receptor 2B (P41595 whole entry): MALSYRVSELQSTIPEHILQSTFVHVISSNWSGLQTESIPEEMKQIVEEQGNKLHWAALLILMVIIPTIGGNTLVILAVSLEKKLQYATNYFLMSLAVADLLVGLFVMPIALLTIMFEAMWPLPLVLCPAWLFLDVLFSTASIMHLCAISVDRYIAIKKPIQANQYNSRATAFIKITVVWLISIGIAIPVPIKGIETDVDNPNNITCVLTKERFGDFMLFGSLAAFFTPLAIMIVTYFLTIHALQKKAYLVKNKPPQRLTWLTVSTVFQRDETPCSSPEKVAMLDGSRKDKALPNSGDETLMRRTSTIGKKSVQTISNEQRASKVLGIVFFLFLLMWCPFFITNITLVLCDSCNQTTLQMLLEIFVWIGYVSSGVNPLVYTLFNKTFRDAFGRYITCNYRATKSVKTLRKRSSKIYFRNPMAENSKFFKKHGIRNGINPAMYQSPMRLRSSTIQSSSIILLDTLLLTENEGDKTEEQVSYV

Bile salt export pump = Bile salt export pump (Homo sapiens, UniProt O95342); assay type: functional
Sequence of Bile salt export pump (O95342 whole entry): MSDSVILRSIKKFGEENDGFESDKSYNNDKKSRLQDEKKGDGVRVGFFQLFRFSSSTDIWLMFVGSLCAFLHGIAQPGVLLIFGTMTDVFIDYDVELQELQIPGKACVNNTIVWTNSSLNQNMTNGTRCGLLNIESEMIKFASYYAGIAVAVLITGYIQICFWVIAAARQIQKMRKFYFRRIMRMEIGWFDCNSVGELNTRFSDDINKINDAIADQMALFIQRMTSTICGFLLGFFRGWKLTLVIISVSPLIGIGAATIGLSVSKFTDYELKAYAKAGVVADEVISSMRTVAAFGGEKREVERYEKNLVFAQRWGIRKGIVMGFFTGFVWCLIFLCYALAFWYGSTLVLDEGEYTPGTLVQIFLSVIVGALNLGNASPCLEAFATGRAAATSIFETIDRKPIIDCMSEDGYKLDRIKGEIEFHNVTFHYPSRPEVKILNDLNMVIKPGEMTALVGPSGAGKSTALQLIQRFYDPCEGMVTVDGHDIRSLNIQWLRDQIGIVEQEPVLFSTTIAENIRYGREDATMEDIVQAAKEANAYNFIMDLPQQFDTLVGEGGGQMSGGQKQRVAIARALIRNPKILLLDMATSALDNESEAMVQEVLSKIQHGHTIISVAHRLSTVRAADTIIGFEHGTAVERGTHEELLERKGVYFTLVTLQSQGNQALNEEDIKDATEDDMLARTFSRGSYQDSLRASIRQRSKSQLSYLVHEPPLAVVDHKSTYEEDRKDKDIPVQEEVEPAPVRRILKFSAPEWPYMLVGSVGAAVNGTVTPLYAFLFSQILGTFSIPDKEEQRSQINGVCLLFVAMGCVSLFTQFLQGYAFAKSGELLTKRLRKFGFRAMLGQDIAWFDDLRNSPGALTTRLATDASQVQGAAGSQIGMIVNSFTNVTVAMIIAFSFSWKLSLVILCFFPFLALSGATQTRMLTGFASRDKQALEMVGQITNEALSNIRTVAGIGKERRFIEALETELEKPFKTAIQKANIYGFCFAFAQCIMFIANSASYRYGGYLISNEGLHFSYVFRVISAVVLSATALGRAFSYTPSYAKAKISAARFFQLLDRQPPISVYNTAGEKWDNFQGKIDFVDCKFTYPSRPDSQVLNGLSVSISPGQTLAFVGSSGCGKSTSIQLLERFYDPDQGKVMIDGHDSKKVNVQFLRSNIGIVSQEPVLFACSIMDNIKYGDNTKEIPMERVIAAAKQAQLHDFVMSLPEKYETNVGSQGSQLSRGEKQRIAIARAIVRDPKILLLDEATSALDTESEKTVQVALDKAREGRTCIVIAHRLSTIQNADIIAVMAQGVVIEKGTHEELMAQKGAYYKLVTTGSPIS

[4] = target: 3',5'-cyclic-AMP phosphodiesterase 4D (Homo sapiens, UniProt Q08499); assay type: functional
Sequence of 3',5'-cyclic-AMP phosphodiesterase 4D (Q08499 whole entry): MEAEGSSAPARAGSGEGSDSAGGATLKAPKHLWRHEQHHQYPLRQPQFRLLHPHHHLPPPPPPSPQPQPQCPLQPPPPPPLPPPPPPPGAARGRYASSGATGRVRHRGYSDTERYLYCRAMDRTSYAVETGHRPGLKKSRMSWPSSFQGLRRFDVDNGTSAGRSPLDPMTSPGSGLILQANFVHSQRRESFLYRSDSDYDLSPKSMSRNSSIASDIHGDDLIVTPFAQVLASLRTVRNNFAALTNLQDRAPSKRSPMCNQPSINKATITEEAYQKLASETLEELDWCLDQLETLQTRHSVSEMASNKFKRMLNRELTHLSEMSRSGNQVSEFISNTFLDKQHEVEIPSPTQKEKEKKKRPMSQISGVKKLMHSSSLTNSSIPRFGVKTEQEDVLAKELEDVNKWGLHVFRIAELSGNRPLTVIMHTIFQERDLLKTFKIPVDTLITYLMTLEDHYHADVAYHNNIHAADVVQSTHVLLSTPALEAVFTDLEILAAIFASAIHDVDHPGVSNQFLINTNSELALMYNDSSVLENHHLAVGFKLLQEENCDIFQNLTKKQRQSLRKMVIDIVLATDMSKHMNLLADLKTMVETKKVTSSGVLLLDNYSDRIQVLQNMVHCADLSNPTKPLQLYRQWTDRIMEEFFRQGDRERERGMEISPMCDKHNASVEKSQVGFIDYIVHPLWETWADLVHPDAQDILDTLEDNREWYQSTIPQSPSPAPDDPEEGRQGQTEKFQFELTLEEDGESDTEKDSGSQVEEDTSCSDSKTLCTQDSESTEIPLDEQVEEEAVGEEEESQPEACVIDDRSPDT

[5] = target: Neuronal acetylcholine receptor subunit alpha-4 (Homo sapiens, UniProt P43681)
Sequence of Neuronal acetylcholine receptor subunit alpha-4 (P43681 whole entry): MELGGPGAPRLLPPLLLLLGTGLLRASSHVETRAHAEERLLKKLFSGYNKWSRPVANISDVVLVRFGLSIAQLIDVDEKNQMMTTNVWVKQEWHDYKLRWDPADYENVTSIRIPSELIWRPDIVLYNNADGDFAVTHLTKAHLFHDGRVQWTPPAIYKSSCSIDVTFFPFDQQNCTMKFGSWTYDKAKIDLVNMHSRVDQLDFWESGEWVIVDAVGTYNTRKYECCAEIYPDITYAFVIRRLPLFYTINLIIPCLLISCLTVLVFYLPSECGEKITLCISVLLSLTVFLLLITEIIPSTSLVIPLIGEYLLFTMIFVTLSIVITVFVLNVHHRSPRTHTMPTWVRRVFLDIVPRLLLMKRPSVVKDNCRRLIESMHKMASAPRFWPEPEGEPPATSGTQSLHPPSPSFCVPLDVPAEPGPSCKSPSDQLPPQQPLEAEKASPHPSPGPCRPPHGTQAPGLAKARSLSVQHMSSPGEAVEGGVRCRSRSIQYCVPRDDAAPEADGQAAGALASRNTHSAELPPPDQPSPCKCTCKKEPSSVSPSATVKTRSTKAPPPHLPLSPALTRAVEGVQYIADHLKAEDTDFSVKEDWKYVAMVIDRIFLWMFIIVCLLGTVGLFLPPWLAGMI

D(3) dopamine receptor = D(3) dopamine receptor (Homo sapiens, UniProt P35462)
Sequence of D(3) dopamine receptor (P35462 whole entry): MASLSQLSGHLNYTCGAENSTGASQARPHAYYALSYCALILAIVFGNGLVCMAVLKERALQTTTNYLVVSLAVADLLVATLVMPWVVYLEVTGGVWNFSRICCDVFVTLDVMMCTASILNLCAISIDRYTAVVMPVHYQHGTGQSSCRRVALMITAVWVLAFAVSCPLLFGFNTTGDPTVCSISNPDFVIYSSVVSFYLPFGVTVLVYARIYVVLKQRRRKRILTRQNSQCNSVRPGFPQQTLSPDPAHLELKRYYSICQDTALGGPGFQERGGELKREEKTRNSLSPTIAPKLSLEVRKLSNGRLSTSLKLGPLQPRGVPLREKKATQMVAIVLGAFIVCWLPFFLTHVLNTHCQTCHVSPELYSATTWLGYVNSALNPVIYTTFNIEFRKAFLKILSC

[6] = target: T2, Cholecystokinin receptor type A (Homo sapiens, UniProt P32238)
T2 sequence (P32238 whole entry): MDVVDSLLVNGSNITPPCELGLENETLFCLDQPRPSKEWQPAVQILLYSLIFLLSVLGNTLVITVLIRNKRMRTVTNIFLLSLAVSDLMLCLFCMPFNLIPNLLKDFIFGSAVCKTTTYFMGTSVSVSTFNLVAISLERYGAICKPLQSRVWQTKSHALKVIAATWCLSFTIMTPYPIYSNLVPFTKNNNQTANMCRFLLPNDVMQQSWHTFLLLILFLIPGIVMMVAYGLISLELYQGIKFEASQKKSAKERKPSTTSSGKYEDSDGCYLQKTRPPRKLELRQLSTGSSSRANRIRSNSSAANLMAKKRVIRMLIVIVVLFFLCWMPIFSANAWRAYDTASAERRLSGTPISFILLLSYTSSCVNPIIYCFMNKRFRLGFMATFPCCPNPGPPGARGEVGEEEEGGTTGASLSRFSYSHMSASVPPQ

[7] = target: T3, Alpha-2A adrenergic receptor (Homo sapiens, UniProt P08913); assay type: functional, cell-based
T3 sequence (P08913 whole entry): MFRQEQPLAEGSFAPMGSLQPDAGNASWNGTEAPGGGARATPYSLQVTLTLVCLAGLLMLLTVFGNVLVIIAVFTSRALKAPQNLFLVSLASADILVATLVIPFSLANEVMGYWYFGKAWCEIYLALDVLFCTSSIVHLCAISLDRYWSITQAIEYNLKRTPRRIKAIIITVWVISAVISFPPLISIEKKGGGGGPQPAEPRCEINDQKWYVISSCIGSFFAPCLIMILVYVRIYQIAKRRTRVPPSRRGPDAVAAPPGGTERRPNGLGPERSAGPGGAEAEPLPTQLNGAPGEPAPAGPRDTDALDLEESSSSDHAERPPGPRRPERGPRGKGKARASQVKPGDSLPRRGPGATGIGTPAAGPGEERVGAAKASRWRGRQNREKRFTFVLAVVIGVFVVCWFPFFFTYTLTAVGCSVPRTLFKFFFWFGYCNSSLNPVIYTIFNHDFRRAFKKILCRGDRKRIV

[8] = target: Growth hormone secretagogue receptor type 1 (Homo sapiens, UniProt Q92847)
Sequence of Growth hormone secretagogue receptor type 1 (Q92847 whole entry): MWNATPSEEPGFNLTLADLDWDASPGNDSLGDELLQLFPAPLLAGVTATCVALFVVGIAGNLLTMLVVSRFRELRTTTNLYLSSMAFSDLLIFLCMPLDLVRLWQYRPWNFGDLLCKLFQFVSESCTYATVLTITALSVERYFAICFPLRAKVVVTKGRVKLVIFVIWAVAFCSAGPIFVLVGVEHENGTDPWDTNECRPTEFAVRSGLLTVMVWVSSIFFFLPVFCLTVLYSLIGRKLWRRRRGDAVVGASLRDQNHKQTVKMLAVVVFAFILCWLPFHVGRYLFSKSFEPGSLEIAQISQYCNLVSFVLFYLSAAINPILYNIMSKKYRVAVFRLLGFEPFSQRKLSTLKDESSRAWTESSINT

Adenosine receptor A1 = target: T4, Adenosine receptor A1 (Homo sapiens, UniProt P30542)
T4 sequence (P30542 whole entry): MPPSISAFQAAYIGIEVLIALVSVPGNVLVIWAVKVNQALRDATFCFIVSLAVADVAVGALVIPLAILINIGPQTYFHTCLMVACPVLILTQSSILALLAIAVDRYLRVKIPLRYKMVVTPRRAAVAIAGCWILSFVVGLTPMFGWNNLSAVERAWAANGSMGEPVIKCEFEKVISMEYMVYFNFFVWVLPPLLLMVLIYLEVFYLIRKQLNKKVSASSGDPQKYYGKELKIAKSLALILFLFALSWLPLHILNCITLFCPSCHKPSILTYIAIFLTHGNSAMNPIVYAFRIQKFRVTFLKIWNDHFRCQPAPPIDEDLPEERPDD

[9] = target: Voltage-gated inwardly rectifying potassium channel KCNH2 (Homo sapiens, UniProt Q12809); assay type: functional; conditions: read-out: AC50
[10] = target: Delta-type opioid receptor (Homo sapiens, UniProt P41143)
Sequence of Delta-type opioid receptor (P41143 whole entry): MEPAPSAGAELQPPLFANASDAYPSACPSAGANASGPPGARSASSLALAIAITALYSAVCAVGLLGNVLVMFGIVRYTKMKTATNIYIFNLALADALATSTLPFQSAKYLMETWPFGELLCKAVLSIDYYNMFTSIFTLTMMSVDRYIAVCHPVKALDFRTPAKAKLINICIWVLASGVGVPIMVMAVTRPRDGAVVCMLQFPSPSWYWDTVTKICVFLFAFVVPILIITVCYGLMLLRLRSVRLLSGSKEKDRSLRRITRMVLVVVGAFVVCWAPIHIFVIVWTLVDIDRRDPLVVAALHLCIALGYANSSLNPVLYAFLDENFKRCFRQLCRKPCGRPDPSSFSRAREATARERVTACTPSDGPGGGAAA

[11] = target: T5, Prostaglandin G/H synthase 1 (Rattus norvegicus, UniProt Q63921); assay type: functional
T5 sequence (Q63921 whole entry): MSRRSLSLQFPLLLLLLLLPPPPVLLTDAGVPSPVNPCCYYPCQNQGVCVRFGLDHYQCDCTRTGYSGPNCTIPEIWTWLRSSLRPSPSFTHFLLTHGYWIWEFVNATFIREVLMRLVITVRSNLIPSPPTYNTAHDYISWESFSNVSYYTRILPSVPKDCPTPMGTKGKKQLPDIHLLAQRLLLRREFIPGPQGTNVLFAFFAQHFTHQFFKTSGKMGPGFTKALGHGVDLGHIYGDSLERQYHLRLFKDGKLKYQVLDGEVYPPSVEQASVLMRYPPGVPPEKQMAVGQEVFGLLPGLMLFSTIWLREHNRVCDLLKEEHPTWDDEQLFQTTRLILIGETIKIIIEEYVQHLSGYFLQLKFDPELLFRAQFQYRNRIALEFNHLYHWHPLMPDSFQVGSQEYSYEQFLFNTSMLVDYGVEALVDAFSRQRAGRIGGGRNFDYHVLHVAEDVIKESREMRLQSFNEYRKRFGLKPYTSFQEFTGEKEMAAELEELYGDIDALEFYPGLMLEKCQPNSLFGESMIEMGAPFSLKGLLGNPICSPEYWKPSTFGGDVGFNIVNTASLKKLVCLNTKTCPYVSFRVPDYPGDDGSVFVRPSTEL
Also: assay procedure not described here.

Sequence of Sodium-dependent noradrenaline transporter (P23975 whole entry): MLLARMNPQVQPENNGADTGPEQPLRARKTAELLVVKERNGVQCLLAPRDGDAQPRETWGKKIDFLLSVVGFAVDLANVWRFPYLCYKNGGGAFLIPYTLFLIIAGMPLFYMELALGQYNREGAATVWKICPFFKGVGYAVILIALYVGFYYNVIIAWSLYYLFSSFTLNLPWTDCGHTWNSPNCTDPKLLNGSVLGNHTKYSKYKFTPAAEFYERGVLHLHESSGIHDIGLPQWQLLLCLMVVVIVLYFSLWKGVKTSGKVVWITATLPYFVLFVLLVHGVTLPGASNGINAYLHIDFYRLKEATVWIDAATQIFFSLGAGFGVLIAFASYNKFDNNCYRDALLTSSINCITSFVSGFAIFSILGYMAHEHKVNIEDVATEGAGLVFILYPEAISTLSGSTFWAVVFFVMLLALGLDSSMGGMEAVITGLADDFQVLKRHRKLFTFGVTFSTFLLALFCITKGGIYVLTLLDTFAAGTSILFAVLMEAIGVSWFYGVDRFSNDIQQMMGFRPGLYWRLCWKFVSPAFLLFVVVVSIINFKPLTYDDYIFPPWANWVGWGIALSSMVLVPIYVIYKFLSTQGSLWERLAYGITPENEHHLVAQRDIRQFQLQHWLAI

SMILES | AC50 [1] [µM] | AC50 [2] [µM] | AC50 [3] [µM] | AC50 (Bile salt export pump) [µM] | AC50 [4] [µM] | AC50 [5] [µM] | AC50 (D(3) dopamine receptor) [µM] | AC50 [6] [µM] | AC50 [7] [µM] | AC50 [8] [µM] | AC50 (Adenosine receptor A1) [µM] | AC50 [10] [µM] | AC50 [11] [µM] | AC50 [9] [µM]
CN(C)CCc1c[nH]c2ccc(CS(=O)(=O)N3CCCC3)cc12 [ALMOTRIPTAN] | > 30 | > 30 | > 30 | > 300 | > 30 | > 30 | > 30 | > 30 | > 30 | > 30 | > 30 | > 30 | > 30 | 15
CCN(CCO)CCCC(C)Nc1ccnc2cc(Cl)ccc12 (configuration not stated) [HYDROXYCHLOROQUINE] | > 10 | > 30 | > 10 | > 300 | > 30 | > 10 | > 30 | > 10 | > 10 | > 10 | > 10 | > 30 | > 10 | 7.4
COC(=O)CCc1ccc(OCC(O)CNC(C)C)cc1 (configuration not stated) [ESMOLOL] | > 30 | > 30 | > 30 | > 300 | > 30 | > 30 | > 30 | > 30 | > 30 | > 30 | > 30 | > 30 | > 30 | > 30
C[C@@H](O)[C@H]1C(=O)N2C(C(=O)O)=C(SCCN=CN)C[C@H]12 [IMIPENEM ANHYDROUS] | > 300 | > 300 | > 300 | > 300 | > 300 | > 300 | > 300 | > 300 | > 300 | > 300 | > 300 | > 300 | > 300 | > 30
CC(C)/N=c1\cc2n(-c3ccc(Cl)cc3)c3ccccc3nc-2cc1Nc1ccc(Cl)cc1 [CLOFAZIMINE] | > 30 | > 30 | > 30 | 12 | 17.5 | > 30 | > 30 | > 30 | > 30 | 0.92 | > 30 | 26 | > 30 | 0.958
O=C(O)COC(=O)Cc1ccccc1Nc1c(Cl)cccc1Cl [ACECLOFENAC] | > 30 | > 30 | > 10 | 130 | > 30 | > 10 | > 30 | > 30 | > 10 | > 30 | > 30 | > 30 | > 30 | > 30
NCCCCCC(=O)O [AMINOCAPROIC ACID] | 20.4 | > 30 | > 10 | > 300 | > 30 | > 10 | > 30 | > 10 | > 10 | > 10 | > 10 | > 30 | > 10 | > 30
O=C(O)[C@H]1/C(=C/CO)O[C@@H]2CC(=O)N21 [CLAVULANIC ACID] | > 30 | > 30 | > 30 | > 300 | > 30 | > 30 | > 30 | > 30 | > 30 | > 30 | > 30 | > 30 | > 30 | > 30
O=C(c1ccccc1)c1ccc2n1CCC2C(=O)O (configuration not stated) [KETOROLAC] | > 10 | > 30 | > 30 | > 300 | > 30 | > 10 | > 30 | > 10 | > 30 | > 10 | > 10 | > 30 | 0.0239 | > 30

Further lines, with some results ahead:

AC50 [1] [µM] | AC50 [2] [µM] | AC50 [3] [µM] | AC50 (Bile salt export pump) [µM] | AC50 [4] [µM] | AC50 [5] [µM] | AC50 (D(3) dopamine receptor) [µM] | AC50 [6] [µM] | AC50 [7] [µM] | AC50 [8] [µM] | AC50 (Adenosine receptor A1) [µM] | AC50 [10] [µM] | AC50 [11] [µM] | SMILES | AC50 [9] [µM]
> 30 | > 30 | > 30 | > 300 | 1.8 | > 30 | > 30 | > 30 | > 30 | > 30 | > 30 | > 30 | > 30 | N[C@@H](Cc1cc(I)c(Oc2cc(I)c(O)c(I)c2)c(I)c1)C(=O)O [LEVOTHYROXINE] | > 30
> 10 | > 30 | > 30 | 21 | > 30 | > 30 | > 30 | > 30 | > 30 | > 30 | > 30 | > 30 | > 30 | CC(=O)SCC(Cc1ccccc1)C(=O)NCC(=O)OCc1ccccc1 (configuration not stated) [RACECADOTRIL] | > 30
> 10 | > 30 | > 10 | > 300 | > 30 | > 10 | > 30 | > 10 | > 10 | > 10 | > 10 | > 30 | > 10 | CNC1(C)C2CCC(C2)C1(C)C (configuration not stated) [MECAMYLAMINE] | > 30
> 30 | > 30 | > 30 | > 300 | > 30 | > 30 | > 30 | > 30 | > 30 | > 30 | > 30 | > 10 | > 30 | C[C@H](Cn1cnc2c(N)ncnc21)OCP(=O)(O)O [TENOFOVIR ANHYDROUS] | > 30
